Target: hCB1 (Homo sapiens, UniProt P21554)
Test: In vitro binding assay using hCB1-CHO membranes, [3H]-CP-55,940 displacement (Protocol II)
Design: expressed in transfected cells; host or cells: CHO (hCB1-CHO, generated in-house)
Method in brief: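 Incubated 1 h at 37° C, stopped by rapid vacuum filtration on PEI-precoated GF/B filters, bound radioactivity counted by liquid scintillation.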

Sequence of hCB1 (P21554 whole entry): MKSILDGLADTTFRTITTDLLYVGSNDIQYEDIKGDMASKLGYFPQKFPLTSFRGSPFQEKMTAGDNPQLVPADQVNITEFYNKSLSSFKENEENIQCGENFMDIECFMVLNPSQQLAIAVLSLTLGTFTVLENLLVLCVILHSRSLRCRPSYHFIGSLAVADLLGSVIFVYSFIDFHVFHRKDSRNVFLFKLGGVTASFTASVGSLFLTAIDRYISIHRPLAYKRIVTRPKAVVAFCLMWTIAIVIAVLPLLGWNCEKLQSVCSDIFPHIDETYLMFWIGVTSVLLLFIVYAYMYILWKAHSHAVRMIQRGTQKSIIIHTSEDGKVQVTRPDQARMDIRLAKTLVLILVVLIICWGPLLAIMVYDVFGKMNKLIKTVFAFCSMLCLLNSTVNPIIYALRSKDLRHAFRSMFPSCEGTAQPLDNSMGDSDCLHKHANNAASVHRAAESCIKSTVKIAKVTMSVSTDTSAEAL

## O=C(NN1CCCCC1)c1nn(-c2ccc(Cl)cc2)c2c1C1CC3CC(C1)CC2C3 [Example 140, N(7)-Piperidino-5-(4′-chlorophenyl)-5,6-diazatetracyclo[7.3.1.1^3,11.0^4,8]tetradeca-4(8)-6-diene-7-carboxamide]
  % Displacement Protocol II: 57.85%

Reference: patent US7923465B2, “Cannabinoid receptor ligands, pharmaceutical compositions containing them, and process for their preparation” (priority 2005, dated 2011)
